Read-outs that look alike come from different tables or passages of the source.
Columns and labels:
[1] = tested on: wheat; settings: cited from earlier work
[2] = tested on: durum wheat (Triticum durum; TRZDU); test: 2016 field trial, Alberta: weed-free tolerance trial, visual phytotoxicity (head deformity) on durum wheat
Description: (§1) One field trial was conducted in Alberta, Canada in 2016 to evaluate whether wheat injury caused by 2,4-D could be reduced by tank-mixing with a herbicide that is preformulated with cloquintocet acid. 2,4-D was applied as either an ester (660 gae/L 2,4-D EHE) or choline salt (456 gae/L 2,4-D choline) at a rate of 700 gae/ha. […] Some treatments were applied with Intake adjuvant at 1% v/v. Intake is a blend of a non-ionic surfactant and a paraffinic oil and is used to improve the spreading and wetting of herbicides. Herbicide treatments were made to spring wheat (Triticum aestivum) and durum wheat (Triticum durum) at the B12-B13 stage. Head deformity was evaluated at 42, 55 and 71 days after treatment (DAT).
(§2) This trial was established a weed-free tolerance trial. All herbicide treatments were applied post-emergence in the spring (e.g., Jun. 2, 2016). Herbicides were applied with a tractor-mounted sprayer using CO2 as a propellant. The sprayer delivered a uniform spray pattern that provided thorough coverage of the foliage using a 100 L/ha spray volume. Applications were made to spring wheat and durum wheat at the 2-3 leaf stage. Phytotoxicity to wheat was visually assessed as percent overall injury, compared to an untreated control plot. The overall injury assessments were based on visual ratings of growth inhibition, leaf deformity, epinasty, chlorosis, and delay in maturity. The primary injury observed with 2,4-D was head deformity, and therefore those are the only evaluations summarized below. The trial was designed as a randomized complete block with four replicates. Referring now to Table 1, 2,4-D ester (e.g., 2,4-D EHE) and 2,4-D choline at a rate of 700 gae/ha caused head deformity to spring wheat peaking at 8% and to durum wheat peaking at 4%. […] The results provide that cloquintocet (or herbicides containing cloquintocet) could be mixed with 2,4-D ester or choline to reduce head deformity in spring wheat caused by early applications of 2,4-D.

[3] = tested on: spring wheat (Triticum aestivum; TRZAS); test: 2016 field trial, Alberta: weed-free tolerance trial, visual phytotoxicity (head deformity) on spring wheat
Description: as §1, §2

[4] = tested on: spring wheat (Triticum aestivum; TRZAS); test: 2018 field trials, Alberta, Saskatchewan and Manitoba: growth inhibition, head deformity and yield loss on spring wheat; assay type: in vivo; settings: for % Growth Inhibition (66 DAT) TRZAS / % Head Deformity (66 DAT) TRZAS / % Yield Loss (77 DAT) TRZAS: Field Trial 1; for % Growth Inhibition (66 DAT) TRZAS / % Head Deformity (66 DAT) TRZAS / % Yield Loss (77 DAT) TRZAS / % Growth Inhibition (7 DAT) TRZAS / % Growth Inhibition (14 DAT) TRZAS: herbicide 700 gae/ha; for % Yield Loss (77 DAT) TRZAS: relative to commercial standard REXADE A at 20 gae/ha; for % Growth Inhibition (7 DAT) TRZAS: Field Trial 2; for % Growth Inhibition (14 DAT) TRZAS: Field Trial 3
Description: (§3) Growth inhibition was evaluated at 7, 14, and 66 days after treatment (DAT), head deformity was evaluated at 66 days after treatment (DAT), and yield was taken at 77 days after treatment (DAT). All treatments are illustrated in Table 3.
Weed-free tolerance trials were established. […] The primary injury observed with 2,4-D was growth inhibition, head deformity, and yield loss, therefore those are the only evaluations summarized below.

[5] = tested on: durum wheat (Triticum durum; TRZDU); test: 2018 field trials, Alberta, Saskatchewan and Manitoba: growth inhibition, head deformity and yield loss on durum wheat; assay type: in vivo; settings: herbicide 700 gae/ha; for % Growth Inhibition (66 DAT) TRZDU / % Head Deformity (66 DAT) TRZDU / % Yield Loss (77 DAT) TRZDU: Field Trial 1; for % Yield Loss (77 DAT) TRZDU: relative to commercial standard REXADE A at 20 gae/ha; for % Growth Inhibition (7 DAT) TRZDU: Field Trial 2; for % Growth Inhibition (14 DAT) TRZDU: Field Trial 3
Description: as §3
Weed-free tolerance trials were established.

[6] = tested on: durum wheat (Triticum durum; TRZDU); settings: in vivo
Description: (§4) Two weed-free tolerance field trials were conducted in Alberta and Manitoba, Canada in 2017 to evaluate whether wheat injury caused by 2,4-D ester could be reduced by tank-mixing with cloquintocet-containing products. […] The rate of cloquintocet parent acid delivered by the tank-mix partners ranged from 3.5 to 63.7 gae/ha. All herbicide treatments were applied post-emergence in the spring (Jun. 16, 2017 to Jun. 26, 2017). Herbicides were applied with tractor- or bicycle-mounted sprayers using CO2 as a propellant. The sprayer delivered a uniform spray pattern that provided thorough coverage of the foliage using a 100 L/ha spray volume. Applications were made to spring wheat (Triticum aestivum) and durum wheat (Triticum durum) at the three-leaf stage. Phytotoxicity to wheat was visually assessed as percent overall injury, compared to an untreated control plot. The overall injury assessments were based on visual ratings of growth inhibition, leaf deformity, epinasty, chlorosis, and delay in maturity. […] Head deformity was evaluated at 10 to 12 weeks after treatment (WAT). The trial was designed as a randomized complete block with four replicates.

[7] = tested on: spring wheat (Triticum aestivum; TRZAS); settings: in vivo
Description: as §4

[8] = 42 DAT, herbicide 700 gae/ha, safener 0, Intake @1% v/v
[9] = 55 DAT, herbicide 700 gae/ha, safener 0, Intake @1% v/v
[10] = 71 DAT, herbicide 700 gae/ha, safener 0, Intake @1% v/v

For 2,4-D amine, the wheat yield reduction ([1]; applied at Stage 13) is listed as 35% and the wheat yield reduction ([1]; applied at Stage 44) is listed as 15%.

With `O=C(O)COc1ccc(Cl)cc1Cl` [2,4-D Choline, 2-hydroxy-N,N,N-trimethylethanaminium 2-(2,4-dichlorophenoxy)acetate] the “% TRZDU Head Deformity” value [2, 8] was 0.0%, the “% TRZDU Head Deformity” value [2, 9] was 3.5% and the “% TRZDU Head Deformity” value [2, 10] was 0.8%. The “% TRZAS Head Deformity” value [3, 8] was 5.8%, the “% TRZAS Head Deformity” value [3, 9] was 5.8% and the “% TRZAS Head Deformity” value [3, 10] was 3.0%.

In the case of `CCCCC(CC)COC(=O)COc1ccc(Cl)cc1Cl` (stereo not drawn) [2,4-D Ester, 2-ethylhexyl 2-(2,4-dichlorophenoxy)acetate], the “head deformity to durum wheat, peak” value ([2]; Triticum durum (durum wheat), in vivo) is reported as no more than 4%, the “% TRZDU Head Deformity” value ([2]; Triticum durum (durum wheat), in vivo, 42 days) is reported as 0.0% and the “% TRZDU Head Deformity” value ([2]; Triticum durum (durum wheat), in vivo, 55 days) is reported as 4.3%. The “% TRZDU Head Deformity” value ([2]; Triticum durum (durum wheat), in vivo, 71 days) was 3.0%, the “head deformity to spring wheat, peak” value ([3]; Triticum aestivum (spring wheat), in vivo) was no more than 8% and the “% TRZAS Head Deformity” value ([3]; Triticum aestivum (spring wheat), in vivo, 42 days) was 6.5%. For the same compound, the “% TRZAS Head Deformity” value ([3]; Triticum aestivum (spring wheat), in vivo, 55 days) was 7.5%, the “% TRZAS Head Deformity” value ([3]; Triticum aestivum (spring wheat), in vivo, 71 days) was 7.8% and the “injury” value ([4]; 2018 trials, applied alone or with Agral 90, spring and durum wheat) was “caused growth inhibition, head deformity and yield loss”. For the same compound, the “% Growth Inhibition (66 DAT) TRZAS” value ([4]; safener 0, Agral 90 @ […]) was 9.1%, the “% Head Deformity (66 DAT) TRZAS” value ([4]; safener 0, Agral 90 @ […]) was 40% and the “% Growth Inhibition (66 DAT) TRZAS” value ([4]; safener 0, no adjuvant) was 10.1%. The “% Head Deformity (66 DAT) TRZAS” value ([4]; safener 0, no adjuvant) was 40%, the “% Yield Loss (77 DAT) TRZAS” value ([4]; safener 0, Agral 90 @ […]) was 3.3% and the “% Yield Loss (77 DAT) TRZAS” value ([4]; safener 0, no adjuvant) was 4.5%. The “% Growth Inhibition (7 DAT) TRZAS” value ([4]; safener 0, Agral 90 @ […]) was 8%, the “% Growth Inhibition (7 DAT) TRZAS” value ([4]; safener 0, no adjuvant) was 4.5% and the “% Growth Inhibition (14 DAT) TRZAS” value ([4]; safener 0, Agral 90 @ […]) was 7.5%. The “% Growth Inhibition (14 DAT) TRZAS” value ([4]; safener 0, no adjuvant) was 7%, the “% Growth Inhibition (66 DAT) TRZDU” value ([5]; safener 0, Agral 90 @ […]) was 1.9% and the “% Head Deformity (66 DAT) TRZDU” value ([5]; safener 0, Agral 90 @ […]) was 5.3%. For the same compound, the “% Growth Inhibition (66 DAT) TRZDU” value ([5]; safener 0, no adjuvant) was 2.6%, the “% Head Deformity (66 DAT) TRZDU” value ([5]; safener 0, no adjuvant) was 5% and the “% Yield Loss (77 DAT) TRZDU” value ([5]; safener 0, Agral 90 @ […]) was 8.8%. The “% Yield Loss (77 DAT) TRZDU” value ([5]; safener 0, no adjuvant) was 6.1%, the “% Growth Inhibition (7 DAT) TRZDU” value ([5]; safener 0, Agral 90 @ […]) was 8.5% and the “% Growth Inhibition (7 DAT) TRZDU” value ([5]; safener 0, no adjuvant) was 5.5%. For the same compound, the “% Growth Inhibition (14 DAT) TRZDU” value ([5]; safener 0, Agral 90 @ […]) was 8.5%, the “% Growth Inhibition (14 DAT) TRZDU” value ([5]; safener 0, no adjuvant) was 7% and the wheat yield reduction ([1]; applied at Stage 13) was 39%. For the same compound, the wheat yield reduction ([1]; applied at Stage 44) was 16%, the “head deformity to durum wheat, peak” value [6] was no more than 4% and the “% TRZDU Head Deformity” value ([6]; 12 weeks) was 0.0%. The “head deformity to spring wheat, peak” value [7] was no more than 10%.
